In PubChem BioAssay AID330 (DTP/NCI, 2004):
Several values for one entry are separate records, joined by “and”; a condition that tells them apart may be missing. Identical values can stand only once. Inconclusive results and toxic doses are left out.

Test system: P388 leukemia ip, CD2F1 mice, survival T/C
Experiment: NCI In Vivo Anticancer Drug Screen. Data for tumor model P388 Leukemia (intraperitoneal) in CD2F1 (CDF1) mice
Details: endpoint: median survival time, higher = longer survival
Outline: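 Mice carrying the transplanted tumor received test compound or vehicle. Survival was recorded in each group, and the value is the treated-group measurement divided by that of the vehicle-treated control group.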

[1] = dose: 100.0 mg/kg/injection, schedule: Q04DX003 (ip), vehicle: saline with Tween-80
[2] = dose: 50.0 mg/kg/injection, schedule: Q01DX009 (ip), vehicle: saline with Tween-80
[3] = dose: 100.0 mg/kg/injection, schedule: Q01DX009 (ip), vehicle: saline with Tween-80
[4] = dose: 100.0 mg/kg/injection, schedule: Q04DX002 (ip), vehicle: Klucel (hydroxypropylcellulose) (HPC)
[5] = dose: 200.0 mg/kg/injection, schedule: Q04DX002 (ip), vehicle: Klucel (hydroxypropylcellulose) (HPC)
[6] = dose: 400.0 mg/kg/injection, schedule: Q04DX002 (ip), vehicle: Klucel (hydroxypropylcellulose) (HPC)
[7] = dose: 60.0 mg/kg/injection, schedule: Q01DX005 (ip), vehicle: Klucel (hydroxypropylcellulose) (HPC)
[8] = dose: 120.0 mg/kg/injection, schedule: Q01DX005 (ip), vehicle: Klucel (hydroxypropylcellulose) (HPC)

COC(=O)C(CCC1CCCCN1)(c1ccccc1)c1ccccc1 (stereo not drawn)
T/C (dose: 25.0 mg/kg/injection, schedule: Q04DX003 (ip), vehicle: saline with Tween-80): 120 % of control
T/C (dose: 66.0 mg/kg/injection, schedule: Q04DX003 (ip), vehicle: saline with Tween-80): 100 % of control
T/C [1]: 150 % of control and 158 % of control

COc1ccc2c3c(ccc2c1)CC1CCCN1C3 (stereo not drawn)
T/C (dose: 50.0 mg/kg/injection, schedule: Q01DX005 (ip), vehicle: other): 116 % of control
T/C (dose: 100.0 mg/kg/injection, schedule: Q01DX005 (ip), vehicle: other): 104 % of control

O=C(O)CC1CCC1CC(=O)O (stereo not drawn)
T/C [2]: 95 % of control
T/C [3]: 95 % of control

COC(=O)C1(C(C)C(=O)c2ccc(Cl)cc2)NC(=S)NC(=O)C1C#N (stereo not drawn)
T/C (dose: 60.0 mg/kg/injection, schedule: Q01DX005 (ip), vehicle: saline): 104 % of control
T/C (dose: 120.0 mg/kg/injection, schedule: Q01DX005 (ip), vehicle: saline): 106 % of control
T/C (dose: 240.0 mg/kg/injection, schedule: Q01DX005 (ip), vehicle: saline): 108 % of control

O=C(Nc1cc(Cl)c([N+](=O)[O-])cc1O)c1ccco1
T/C (dose: 50.0 mg/kg/injection, schedule: Q01DX009 (ip), vehicle: Klucel (hydroxypropylcellulose) (HPC)): 106 % of control
T/C (dose: 100.0 mg/kg/injection, schedule: Q01DX009 (ip), vehicle: Klucel (hydroxypropylcellulose) (HPC)): 99 % of control
T/C (dose: 200.0 mg/kg/injection, schedule: Q01DX009 (ip), vehicle: Klucel (hydroxypropylcellulose) (HPC)): 98 % of control

CC(NC(=O)C(NC(=O)OCc1ccccc1)C(C)O)C(=O)OCc1ccccc1 (stereo not drawn)
T/C (dose: 50.0 mg/kg/injection, schedule: Q01DX005 (ip), vehicle: saline with Tween-80): 101 % of control
T/C (dose: 100.0 mg/kg/injection, schedule: Q01DX005 (ip), vehicle: saline with Tween-80): 92 % of control
T/C (dose: 200.0 mg/kg/injection, schedule: Q01DX005 (ip), vehicle: saline with Tween-80): 100 % of control

OCCN1CCN(CCCN2c3ccccc3Sc3ccc(C(F)(F)F)cc32)CC1
T/C (dose: 7.5 mg/kg/injection, schedule: Q04DX003 (ip), vehicle: saline): 111 % of control
T/C (dose: 15.0 mg/kg/injection, schedule: Q04DX003 (ip), vehicle: saline): 120 % of control
T/C (dose: 60.0 mg/kg/injection, schedule: Q04DX003 (ip), vehicle: saline): 123 % of control

COC(=O)C1=C(C(=O)OC)C(=Nc2ccccc2)c2ccccc2C1=O
T/C [4]: 100 % of control
T/C [5]: 100 % of control
T/C [6]: 110 % of control

COc1cc(CCc2cc(OC)c(OC)c(OC)c2)cc(OC)c1OC
T/C (dose: 31.25 mg/kg/injection, schedule: Q01DX009 (ip), vehicle: saline + Tween-80 + alcohol): 98 % of control
T/C (dose: 62.5 mg/kg/injection, schedule: Q01DX009 (ip), vehicle: saline + Tween-80 + alcohol): 91 % of control
T/C (dose: 125.0 mg/kg/injection, schedule: Q01DX009 (ip), vehicle: saline + Tween-80 + alcohol): 102 % of control
T/C (dose: 250.0 mg/kg/injection, schedule: Q01DX009 (ip), vehicle: saline + Tween-80 + alcohol): 87 % of control

COC(=O)C(Cl)c1ccc2c(c1)OCO2 (stereo not drawn)
T/C (dose: 25.0 mg/kg/injection, schedule: Q01DX009 (ip), vehicle: saline with Tween-80): 100 % of control
T/C [2]: 90 % of control
T/C [3]: 95 % of control

O=C1COc2ccc(F)cc2N1
T/C [7]: 102 % of control and 103 % of control
T/C [8]: 101 % of control and 96 % of control
T/C (dose: 240.0 mg/kg/injection, schedule: Q01DX005 (ip), vehicle: Klucel (hydroxypropylcellulose) (HPC)): 101 % of control and 102 % of control

CCCN(CCC)CCC(=O)OCC
T/C [1]: 118 % of control
T/C (dose: 200.0 mg/kg/injection, schedule: Q04DX003 (ip), vehicle: saline with Tween-80): 100 % of control
T/C (dose: 400.0 mg/kg/injection, schedule: Q04DX003 (ip), vehicle: saline with Tween-80): 100 % of control

Cc1nn(C(=S)S)c(C)c1N=Nc1ccc(Br)cc1
T/C [4]: 113 % of control
T/C [5]: 90 % of control
T/C [6]: 112 % of control

O=c1cccc2c3ccccc3ccn12
T/C [7]: 91 % of control
T/C [8]: 95 % of control

C[S+](C)CCCNC(=O)c1csc(-c2csc(-c3ccccc3)n2)n1
T/C (dose: 6.25 mg/kg/injection, schedule: Q01DX005 (ip), vehicle: water): 100 % of control
T/C (dose: 12.5 mg/kg/injection, schedule: Q01DX005 (ip), vehicle: water): 107 % of control
T/C (dose: 25.0 mg/kg/injection, schedule: Q01DX005 (ip), vehicle: water): 106 % of control
